Here are results for four compounds from PubChem BioAssay (NCI).

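Compound exposure: 48 hours, 5 concentrations, 96-well plates. TGI: concentration producing complete growth inhibition.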 Where a SMILES comes first, the peptide text is derived from it. [ ]: non-standard residue; d: D form. The star is where a group is joined. Hyp = O=C(O)[CH]1C[CH](O)CN1; Cbz = O=C(OCc1ccccc1)*

Some test systems named below: OVCAR-8 ovarian; HCT-15 colon; HS 578T breast; MDA-N; TK-10 renal; OVCAR-5 ovarian; M14 melanoma; SN12C renal; BT-549 breast; HCT-116 colon; MOLT-4 leukemia; SR leukemia; NCI/ADR-RES ovarian; DU-145 prostate; PC-3 prostate; LOX IMVI melanoma; SF-295 CNS; SK-OV-3 ovarian.
What all share (test): growth of human tumour cells (NCI), 48 h

In the case of `COc1cc([N+](=O)[O-])cc2c1NC(=O)C2(C)SC` (configuration not stated), the TGI in the assay with OVCAR-8 ovarian, in the assay on HCT-15 colon, with HS 578T breast, with MDA-N, in the assay with TK-10 renal and with OVCAR-5 ovarian was greater than 100 µM each time. The TGI in the assay on M14 melanoma, with SN12C renal, with BT-549 breast, in the assay with HCT-116 colon, in the assay with MOLT-4 leukemia and in the assay with SR leukemia was greater than 100 µM throughout. Also, the TGI was greater than 100 µM in the assay with NCI/ADR-RES ovarian; greater than 100 µM with DU-145 prostate; greater than 100 µM in the assay on PC-3 prostate; greater than 100 µM with LOX IMVI melanoma; greater than 100 µM in the assay on SF-295 CNS; 69.7 µM in the assay with SK-OV-3 ovarian.

`Cc1[nH]c2[nH]c(=S)nc(NC(N)=S)c2c1Cc1ccccc1`: the TGI in the assay with OVCAR-8 ovarian is greater than 100 µM; with HCT-15 colon it was greater than 100 µM; with HS 578T breast, 60.6 µM; in the assay on MDA-N it was 69.1 µM; with TK-10 renal, greater than 100 µM; in the assay on OVCAR-5 ovarian, greater than 100 µM. The TGI in the assay on M14 melanoma was greater than 100 µM; with SN12C renal, greater than 100 µM; in the assay on BT-549 breast, 36.3 µM; in the assay with HCT-116 colon, greater than 100 µM; in the assay on MOLT-4 leukemia, greater than 100 µM; with SR leukemia it was 36.2 µM. Further, the TGI with NCI/ADR-RES ovarian was greater than 100 µM; in the assay on DU-145 prostate it was greater than 100 µM; in the assay on PC-3 prostate it was greater than 100 µM; with LOX IMVI melanoma, 55.4 µM; with SF-295 CNS, greater than 100 µM; in the assay on SK-OV-3 ovarian, greater than 100 µM.

In the case of `NC(=O)CNC(=O)C1CC(O)CN1C(=O)C1CCCN1C(=O)OCc1ccccc1` (stereo not drawn) (Cbz-Pro-[Hyp]-Gly-NH2; configuration not given here), the TGI in the assay on OVCAR-8 ovarian, in the assay on HCT-15 colon, in the assay on HS 578T breast, in the assay on MDA-N, with TK-10 renal and in the assay on OVCAR-5 ovarian was greater than 100 µM throughout. In addition, the TGI with M14 melanoma, in the assay on SN12C renal, with BT-549 breast, with HCT-116 colon, in the assay with MOLT-4 leukemia and in the assay with SR leukemia was greater than 100 µM in each case. Further, the TGI with NCI/ADR-RES ovarian, in the assay on DU-145 prostate, with PC-3 prostate, in the assay on LOX IMVI melanoma, with SF-295 CNS and in the assay on SK-OV-3 ovarian was greater than 100 µM each time.

As to `N#CC(C#N)=C(N)/C(C#N)=C/c1ccc(O)c(O)c1`, the TGI in the assay with OVCAR-8 ovarian, in the assay on HCT-15 colon, in the assay with HS 578T breast, in the assay with MDA-N, with TK-10 renal and in the assay with OVCAR-5 ovarian was greater than 100 µM in each case. Further, the TGI in the assay with M14 melanoma, in the assay on SN12C renal, in the assay with BT-549 breast, with HCT-116 colon, in the assay on MOLT-4 leukemia and in the assay on SR leukemia was greater than 100 µM in each case. Further, the TGI with NCI/ADR-RES ovarian, in the assay on DU-145 prostate, in the assay with PC-3 prostate, in the assay on LOX IMVI melanoma, in the assay on SF-295 CNS and in the assay on SK-OV-3 ovarian was greater than 100 µM each time.
